How the values were obtained:
[1] = tested on: Human-derived dermal papilla cells (DPCs); assay: Enhancement of activity of dermal papilla cells (CCK-8 method); format: cell-based; settings: for Activity of dermal papilla cells (%): incubated for a day, percentage of the control group as 100; for Effect on activity and proliferation of dermal papilla cells (in words): summary of Table 3
Method: Human-derived dermal papilla cells (DPCs) were purchased from PromoCell. The DPCs were cultured in DMEM (Hyclone Inc., UT, USA) containing 5% fetal bovine serum (FBS; GIBCO, NY, USA), 100 units/mL penicillin and 100 μg/mL streptomycin under the condition of 37° C. and 5% CO2. The cultured DPCs were seeded onto a 96-well plate at 3,000 cells/well and then cultured for 24 hours under a 0.1% serum condition. […] After the incubation, the enhancement of cellular activity was evaluated by the CCK method. The cell culture was treated and incubated with CCK-8 at 1:10 for 1 hour. 1 hour later, the absorbance of each well was measured at 450 nm. All the experiments were 3 times and the absorbance was averaged. The result was expressed as percentage of the control group as 100.

androgen receptor = assay: Androgenic activity: MMTV-Luc transcriptional activation assay in 22Rv1 cells with DHT; format: cell-based, human; settings: for Inhibition of androgenic activity (%): 10 μg/mL together with 1 nM DHT, 24 hours; for Effect of inhibiting androgenic activity (in words): summary of Table 6
Method: The stable cell line was maintained by subculturing using RPMI1640 and 10% fetal bovine serum (GIBCO BRL, Gaithersburg, MD, USA). For transcriptional activation assay, the cells were seeded in a 96-well plate, with 25,000 cells per well, while replacing the medium with phenol red-free RPMI1640 containing 5% charcoal-stripped fetal bovine serum. […] The cell culture was treated and incubated with CCK-8 at 1:10 for 2 hours. 2 hour later, the absorbance of each well was measured at 450 nm. All the experiments were 3 times and the absorbance was averaged.

[2] = tested on: Human-derived dermal papilla cells (DPCs); assay: Enhancement of mitochondrial activity of dermal papilla cells (JC-1 method); format: cell-based; settings: for Mitochondrial activity of dermal papilla cells (%): incubated for a day, percentage of the control group as 100; for Effect on mitochondrial activity of dermal papilla cells (in words): summary of Table 4
Method: Human-derived dermal papilla cells (DPCs) were purchased from PromoCell. The DPCs were cultured in DMEM (Hyclone Inc., UT, USA) containing 5% fetal bovine serum (FBS; GIBCO, NY, USA), 100 units/mL penicillin and 100 μg/mL streptomycin under the condition of 37° C. and 5% CO2. The cultured DPCs were seeded onto a 96-well plate at 3,000 cells/well and then cultured for 24 hours under a 0.1% serum condition. […] After the incubation, the degree of cell proliferation was evaluated by the JC-1 method. The cell culture was treated and incubated with JC-1 at 1:100 for 1 hour. 1 hour later, the fluorescence of each well was measured at 590 nm and 530 nm. All the experiments were 3 times and the fluorescence intensity was averaged. The result was expressed as percentage of the control group as 100.

Wnt/β-catenin signaling = assay: Wnt/β-catenin luciferase reporter assay in Wnt Reporter HEK293A cells; format: cell-based; settings: for Wnt signaling activity for activating hair follicles (%): untreated group 100%; for Wnt signaling activity (in words): summary of Table 5
Excerpt: In general, the Wnt/β-catenin signaling activated in the dermal papillae during transition from the […] to the anagen transition in the hair growth cycle begins as the hair starts to grow and occurs throughout the anagen phase. In the telogen and catagen phases, the Wnt/β-catenin signaling decreases or disappears, resulting in degeneration of hair follicles and shedding of hair. Therefore, it was investigated in the examples how much the momordin Ic, platycodin D2, polygalacin D or pseudoginsenoside RT5 of the present disclosure contributes to the amplification of Wnt/β-catenin signaling.
Wnt3a protein was used as a positive control group for amplifying Wnt/β-catenin signaling, and DMSO was used as a negative control group. After seeding Wnt Reporter HEK293A cells in a 96-well culture plate, with 3×10^4 cells per well, and then treating with the momordin Ic, platycodin D2, polygalacin D or pseudoginsenoside RT5 of the present disclosure as described in Table 5, reporter assay was conducted using a Promega's luciferase assay kit (E1960). The experiment was conducted according to the manufacturer's instructions and the activity of the Wnt/β-catenin promoter was measured using a luminometer (Victor; PerkinElmer, Waltham, Massachusetts, USA).

Compound	Activity of dermal papilla cells (%) ([1]; 10 μg/mL)	Effect on activity and proliferation of dermal papilla cells (in words) [1]	Inhibition of androgenic activity (%) (androgen receptor)	Mitochondrial activity of dermal papilla cells (%) ([2]; 10 μg/mL)	Effect on mitochondrial activity of dermal papilla cells (in words) [2]	Activity of dermal papilla cells (%) ([1]; 2 μg/mL)	Wnt signaling activity for activating hair follicles (%) (Wnt/β-catenin signaling; 2 μg/mL)	Mitochondrial activity of dermal papilla cells (%) ([2]; 2 μg/mL)	Effect of inhibiting androgenic activity (in words) (androgen receptor)	Wnt signaling activity for activating hair follicles (%) (Wnt/β-catenin signaling; 10 μg/mL)	Wnt signaling activity (in words) (Wnt/β-catenin signaling)
C[C@@H]1O[C@@H](O[C@H]2[C@H](O[C@H]3[C@H](O[C@H]4CC[C@]5(C)[C@H]6CC=C7[C@@H]8CC(C)(C)CC[C@]8(C(=O)O)CC[C@@]7(C)[C@]6(C)CC[C@H]5C4(C)C)OC[C@H](O)[C@@H]3O)O[C@H](CO)[C@@H](O)[C@@H]2O)[C@H](O)[C@H](O)[C@H]1O [Raddeanin A, raddeanin A]	130%	superior effect of enhancing the activity of dermal papilla cells	10%	–	–	–	–	–	–	–	–
CC(C)=C[C@@H]1CO[C@]23C[C@@]4(CO2)[C@@H](CC[C@@H]2[C@@]5(C)CC[C@H](O[C@H]6OC[C@H](O)[C@H](O[C@H]7O[C@H](COS(=O)(=O)O)[C@@H](O)[C@H](O)[C@H]7O)[C@H]6O[C@@H]6O[C@@H](CO)[C@H](O)[C@H]6O)C(C)(C)[C@@H]5CC[C@]24C)[C@H]3[C@@]1(C)O [Bacopaside I, bacopaside I]	133%	superior effect of enhancing the activity of dermal papilla cells	6%	110%	superior effect of enhancing the mitochondrial activity	–	–	–	–	–	–
Nc1cc(N2CCCCC2)nc(N)[n+]1[O-] [Minoxidil, 2,4-diamino-6-piperidinopyrimidine 3-oxide, reference compound]	–	–	–	–	–	121%	82%	129%	–	–	–
C[C@@H]1O[C@@H](O[C@H]2[C@H](OC(=O)[C@]34CCC(C)(C)C[C@H]3C3=CC[C@@H]5[C@@]6(C)C[C@H](O)[C@H](O[C@@H]7O[C@H](CO)[C@@H](O)[C@H](O)[C@H]7O)[C@@](C)(CO)[C@@H]6CC[C@@]5(C)[C@]3(C)C[C@H]4O)OC[C@H](O)[C@@H]2O)[C@H](O)[C@H](O)[C@H]1O[C@@H]1OC[C@@H](O)[C@H](O[C@@H]2OC[C@](O)(CO)[C@H]2O)[C@H]1O [Polygalacin D, polygalacin D]	164%	superior effect of enhancing the activity of dermal papilla cells	26%	–	–	–	–	–	superior effect of inhibiting androgenic activity	293%	superior Wnt signaling activity
CC(C)=CCC[C@](C)(O[C@@H]1O[C@H](CO)[C@@H](O)[C@H](O)[C@H]1O)[C@H]1CC[C@]2(C)[C@@H]1[C@H](O)C[C@@H]1[C@@]3(C)CC[C@H](O[C@@H]4O[C@H](CO)[C@@H](O)[C@H](O)[C@H]4O[C@@H]4O[C@H](CO)[C@@H](O)[C@H](O)[C@H]4O)C(C)(C)[C@@H]3[C@@H](O)C[C@]12C [Vina-ginsenoside R4, vina-ginsenoside R4]	137%	superior effect of enhancing the activity of dermal papilla cells	4%	111%	superior effect of enhancing the mitochondrial activity	–	–	–	–	–	–
CC(C)(O)[C@H]1CC[C@@](C)([C@H]2CC[C@]3(C)[C@@H]2[C@H](O)C[C@@H]2[C@@]4(C)CC[C@H](O)C(C)(C)[C@@H]4[C@@H](O[C@@H]4O[C@H](CO)[C@@H](O)[C@H](O)[C@H]4O)C[C@]23C)O1 [Pseudoginsenoside RT5, pseudoginsenoside RT5]	141%	superior effect of enhancing the activity of dermal papilla cells	8%	112%	superior effect of enhancing the mitochondrial activity	–	–	–	–	120%	superior Wnt signaling activity
CC(C)=CCC[C@](C)(O)[C@H]1CC[C@]2(C)[C@@H]1[C@H](O)C[C@@H]1[C@@]3(C)CC[C@H](O)C(C)(C)[C@@H]3[C@@H](O[C@@H]3O[C@H](CO)[C@@H](O)[C@H](O)[C@H]3O[C@@H]3OC[C@@H](O)[C@H](O)[C@H]3O)C[C@]12C [Notoginsenoside R2, notoginsenoside R2]	131%	superior effect of enhancing the activity of dermal papilla cells	29%	117%	superior effect of enhancing the mitochondrial activity	–	–	–	superior effect of inhibiting androgenic activity	–	–
CC(C)C1=CC(=O)C(C)(C2C(O)CC3(C)C4CC=C5C(CCC(OC6OC(CO)C(O)C(O)C6OC6OC(C)C(O)C(O)C6O)C5(C)C)C4(C)C(=O)CC23C)O1 (centres unmarked) [Picfeltarraenin IB, picfeltarraenin IB]	139%	superior effect of enhancing the activity of dermal papilla cells	–	–	–	–	–	–	–	–	–
CC1(C)CC[C@]2(C(=O)O)CC[C@]3(C)C(=CC[C@@H]4[C@@]5(C)CC[C@H](O[C@@H]6O[C@H](C(=O)O)[C@@H](O)[C@H](O[C@@H]7OC[C@@H](O)[C@H](O)[C@H]7O)[C@H]6O)C(C)(C)[C@@H]5CC[C@]43C)[C@@H]2C1 [Momordin Ic, momordin Ic]	148%	superior effect of enhancing the activity of dermal papilla cells	12%	120%	superior effect of enhancing the mitochondrial activity	–	–	–	–	370%	superior Wnt signaling activity
C[C@@H]1CC[C@]2(C(=O)O)CC[C@]3(C)C(=CC[C@@H]4[C@@]5(C)CC[C@H](O[C@@H]6OC[C@H](O)[C@H](O)[C@H]6O)C(C)(C)[C@@H]5CC[C@]43C)[C@@H]2[C@]1(C)O [Ziyuglycoside II, ziyuglycoside II]	139%	superior effect of enhancing the activity of dermal papilla cells	–	105%	superior effect of enhancing the mitochondrial activity	–	–	–	–	–	–
asiaticoside B	131%	superior effect of enhancing the activity of dermal papilla cells	6%	151%	superior effect of enhancing the mitochondrial activity	–	–	–	–	–	–
C[C@@H]1O[C@@H](O[C@H]2[C@H](OC(=O)[C@]34CCC(C)(C)C[C@H]3C3=CC[C@@H]5[C@@]6(C)C[C@H](O)[C@H](O[C@@H]7O[C@H](CO)[C@@H](O)[C@H](O[C@@H]8O[C@H](CO)[C@@H](O)[C@H](O)[C@H]8O)[C@H]7O)C(CO)(CO)[C@@H]6CC[C@@]5(C)[C@]3(C)C[C@H]4O)OC[C@H](O)[C@@H]2O)[C@H](O)[C@H](O)[C@H]1O[C@@H]1OC[C@@H](O)[C@H](O[C@@H]2OC[C@](O)(CO)[C@H]2O)[C@H]1O [Platycodin D2, platycodin D2]	162%	superior effect of enhancing the activity of dermal papilla cells	16%	–	–	–	–	–	superior effect of inhibiting androgenic activity	216%	superior Wnt signaling activity

From US12678387B2, “Composition for alleviating hair loss or promoting hair growth” (LG HOUSEHOLD & HEALTH CARE LTD., priority 2020, dated 2026)
